Broadly, the ΔTm is the change in melting temperature against a reference sample.

This note sets out measurements from ChEMBL document CHEMBL1145498, “A systematic interaction map of validated kinase inhibitors with Ser/Thr kinases” (Proc Natl Acad Sci U S A, 2007).

The target in assay [1] is Serine/threonine-protein kinase Chk2 (Homo sapiens, UniProt O96017).
Assay [2] deals with Serine/threonine-protein kinase pim-3 (Homo sapiens) (UniProt Q86V86).
The target of assay [3] is Mitogen-activated protein kinase 11 (Homo sapiens, UniProt Q15759).
Assay [4] has as its target T1, Serine/threonine-protein kinase PLK4 (Homo sapiens) (UniProt O00444).
T1 sequence (whole entry): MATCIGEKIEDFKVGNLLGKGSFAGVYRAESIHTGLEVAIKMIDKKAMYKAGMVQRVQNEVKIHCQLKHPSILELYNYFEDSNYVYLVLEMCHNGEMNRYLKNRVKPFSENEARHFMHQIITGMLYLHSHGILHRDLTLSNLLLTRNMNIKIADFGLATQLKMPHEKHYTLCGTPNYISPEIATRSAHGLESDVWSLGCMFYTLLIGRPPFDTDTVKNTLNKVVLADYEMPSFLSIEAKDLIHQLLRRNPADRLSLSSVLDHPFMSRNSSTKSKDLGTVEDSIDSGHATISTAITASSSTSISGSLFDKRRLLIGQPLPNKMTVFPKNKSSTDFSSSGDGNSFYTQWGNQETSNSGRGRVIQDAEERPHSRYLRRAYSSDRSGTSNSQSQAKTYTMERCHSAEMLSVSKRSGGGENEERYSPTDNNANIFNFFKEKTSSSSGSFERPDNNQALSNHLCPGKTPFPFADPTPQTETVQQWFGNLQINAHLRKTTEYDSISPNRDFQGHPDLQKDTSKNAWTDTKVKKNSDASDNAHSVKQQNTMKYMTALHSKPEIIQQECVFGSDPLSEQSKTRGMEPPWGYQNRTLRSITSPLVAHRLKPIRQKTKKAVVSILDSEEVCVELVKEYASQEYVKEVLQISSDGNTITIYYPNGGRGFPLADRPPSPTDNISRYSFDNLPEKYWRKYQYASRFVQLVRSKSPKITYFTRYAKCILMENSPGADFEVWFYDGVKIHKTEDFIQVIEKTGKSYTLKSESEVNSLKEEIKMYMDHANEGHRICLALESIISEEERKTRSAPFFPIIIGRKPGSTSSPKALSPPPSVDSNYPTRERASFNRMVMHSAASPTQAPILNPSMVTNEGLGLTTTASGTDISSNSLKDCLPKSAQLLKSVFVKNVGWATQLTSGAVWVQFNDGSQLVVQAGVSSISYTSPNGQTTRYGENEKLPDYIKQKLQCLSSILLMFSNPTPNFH

In assay [5] the target is cAMP-dependent protein kinase catalytic subunit alpha (Homo sapiens) (UniProt P17612).
Assay [6] concerns the target T2, Serine/threonine-protein kinase VRK1 (Homo sapiens) (UniProt Q99986).
T2 sequence (whole entry): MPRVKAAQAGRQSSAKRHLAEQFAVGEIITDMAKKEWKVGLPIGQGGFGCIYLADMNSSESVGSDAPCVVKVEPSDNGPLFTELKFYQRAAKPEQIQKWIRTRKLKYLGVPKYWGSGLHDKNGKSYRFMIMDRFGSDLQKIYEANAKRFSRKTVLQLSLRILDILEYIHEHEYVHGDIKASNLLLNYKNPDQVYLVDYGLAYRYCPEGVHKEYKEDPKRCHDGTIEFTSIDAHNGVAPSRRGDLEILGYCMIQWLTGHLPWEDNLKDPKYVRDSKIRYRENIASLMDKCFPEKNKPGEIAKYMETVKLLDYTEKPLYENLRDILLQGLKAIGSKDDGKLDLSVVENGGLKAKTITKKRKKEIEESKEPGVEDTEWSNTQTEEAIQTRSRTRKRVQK

Assay [7] addresses Tyrosine-protein kinase JAK1 (Homo sapiens) (UniProt P23458).
For assay [8], the target named is T3, 3-phosphoinositide-dependent protein kinase 1 (Homo sapiens) (UniProt O15530).
T3 sequence (whole entry): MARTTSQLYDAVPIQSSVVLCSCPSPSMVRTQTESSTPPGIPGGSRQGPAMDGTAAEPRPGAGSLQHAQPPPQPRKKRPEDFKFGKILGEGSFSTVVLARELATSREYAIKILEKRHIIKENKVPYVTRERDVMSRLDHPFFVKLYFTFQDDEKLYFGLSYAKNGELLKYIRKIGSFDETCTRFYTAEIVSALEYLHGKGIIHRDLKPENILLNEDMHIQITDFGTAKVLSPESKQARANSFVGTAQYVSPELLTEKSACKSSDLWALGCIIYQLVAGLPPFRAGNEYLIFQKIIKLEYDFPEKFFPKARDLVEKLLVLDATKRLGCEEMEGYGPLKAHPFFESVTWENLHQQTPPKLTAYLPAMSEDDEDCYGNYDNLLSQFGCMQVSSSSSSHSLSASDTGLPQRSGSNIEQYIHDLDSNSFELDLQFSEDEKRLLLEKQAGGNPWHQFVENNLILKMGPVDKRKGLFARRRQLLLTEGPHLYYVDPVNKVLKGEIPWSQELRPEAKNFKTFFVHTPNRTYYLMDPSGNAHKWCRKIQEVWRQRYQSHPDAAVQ

Assay [9] has as its target Serine/threonine-protein kinase PAK 5 (Homo sapiens) (UniProt Q9P286).
Assay [10] addresses Serine/threonine-protein kinase PAK 4 (Homo sapiens) (UniProt O96013).
In assay [11] the target is STE20-like serine/threonine-protein kinase (Homo sapiens) (UniProt Q9H2G2).
The target of assay [12] is T4, Serine/threonine-protein kinase Nek2 (Homo sapiens) (UniProt P51955).
T4 sequence (whole entry): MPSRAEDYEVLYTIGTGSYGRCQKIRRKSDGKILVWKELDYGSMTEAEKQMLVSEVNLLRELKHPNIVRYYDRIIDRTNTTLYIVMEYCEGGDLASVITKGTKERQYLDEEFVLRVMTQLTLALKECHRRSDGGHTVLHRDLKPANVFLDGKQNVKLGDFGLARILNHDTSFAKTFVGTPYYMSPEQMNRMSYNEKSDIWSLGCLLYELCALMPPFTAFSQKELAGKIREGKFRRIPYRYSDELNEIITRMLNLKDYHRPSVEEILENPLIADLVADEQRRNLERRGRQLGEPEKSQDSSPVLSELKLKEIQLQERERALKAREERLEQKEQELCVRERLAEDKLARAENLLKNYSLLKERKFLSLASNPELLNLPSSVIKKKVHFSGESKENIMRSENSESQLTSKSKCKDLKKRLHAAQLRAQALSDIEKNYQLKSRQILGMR

SMILES strings stand for the structures.

Serine/threonine-protein kinase PAK 5 (Homo sapiens), sequence (Q9P286 whole entry, looked up): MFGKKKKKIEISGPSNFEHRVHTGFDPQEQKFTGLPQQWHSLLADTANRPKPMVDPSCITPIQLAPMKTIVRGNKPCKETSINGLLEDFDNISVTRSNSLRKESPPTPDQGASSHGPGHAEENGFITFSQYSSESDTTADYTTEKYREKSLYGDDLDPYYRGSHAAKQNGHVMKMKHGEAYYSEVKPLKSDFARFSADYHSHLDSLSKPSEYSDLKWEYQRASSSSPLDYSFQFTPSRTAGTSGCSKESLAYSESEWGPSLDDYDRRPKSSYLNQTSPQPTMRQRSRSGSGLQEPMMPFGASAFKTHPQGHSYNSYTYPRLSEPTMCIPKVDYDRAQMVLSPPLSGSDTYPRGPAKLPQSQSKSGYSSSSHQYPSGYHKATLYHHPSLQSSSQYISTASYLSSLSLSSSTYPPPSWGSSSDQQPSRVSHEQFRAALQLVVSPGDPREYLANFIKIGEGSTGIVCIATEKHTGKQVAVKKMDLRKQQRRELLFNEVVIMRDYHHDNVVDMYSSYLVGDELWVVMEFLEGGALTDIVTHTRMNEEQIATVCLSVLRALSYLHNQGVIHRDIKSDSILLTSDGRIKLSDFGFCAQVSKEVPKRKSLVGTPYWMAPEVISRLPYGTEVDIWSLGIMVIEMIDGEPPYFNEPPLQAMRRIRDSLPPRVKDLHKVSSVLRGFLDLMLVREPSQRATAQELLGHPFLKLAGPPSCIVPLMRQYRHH
Serine/threonine-protein kinase Chk2, sequence (O96017 whole entry): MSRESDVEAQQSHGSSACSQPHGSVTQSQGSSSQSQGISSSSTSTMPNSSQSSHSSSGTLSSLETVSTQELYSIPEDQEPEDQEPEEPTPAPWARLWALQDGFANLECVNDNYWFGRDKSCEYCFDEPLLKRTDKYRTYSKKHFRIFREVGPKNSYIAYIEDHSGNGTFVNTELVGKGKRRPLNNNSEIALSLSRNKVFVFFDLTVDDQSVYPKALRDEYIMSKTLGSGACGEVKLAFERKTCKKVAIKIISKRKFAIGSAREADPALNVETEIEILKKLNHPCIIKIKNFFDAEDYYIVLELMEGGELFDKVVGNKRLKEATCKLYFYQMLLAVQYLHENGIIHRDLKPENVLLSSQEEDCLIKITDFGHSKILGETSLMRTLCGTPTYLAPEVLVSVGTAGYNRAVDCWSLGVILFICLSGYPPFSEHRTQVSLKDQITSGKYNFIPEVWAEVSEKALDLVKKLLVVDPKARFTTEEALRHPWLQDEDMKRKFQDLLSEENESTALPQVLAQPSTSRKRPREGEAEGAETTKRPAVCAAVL
STE20-like serine/threonine-protein kinase (Homo sapiens), sequence (Q9H2G2 whole entry, looked up): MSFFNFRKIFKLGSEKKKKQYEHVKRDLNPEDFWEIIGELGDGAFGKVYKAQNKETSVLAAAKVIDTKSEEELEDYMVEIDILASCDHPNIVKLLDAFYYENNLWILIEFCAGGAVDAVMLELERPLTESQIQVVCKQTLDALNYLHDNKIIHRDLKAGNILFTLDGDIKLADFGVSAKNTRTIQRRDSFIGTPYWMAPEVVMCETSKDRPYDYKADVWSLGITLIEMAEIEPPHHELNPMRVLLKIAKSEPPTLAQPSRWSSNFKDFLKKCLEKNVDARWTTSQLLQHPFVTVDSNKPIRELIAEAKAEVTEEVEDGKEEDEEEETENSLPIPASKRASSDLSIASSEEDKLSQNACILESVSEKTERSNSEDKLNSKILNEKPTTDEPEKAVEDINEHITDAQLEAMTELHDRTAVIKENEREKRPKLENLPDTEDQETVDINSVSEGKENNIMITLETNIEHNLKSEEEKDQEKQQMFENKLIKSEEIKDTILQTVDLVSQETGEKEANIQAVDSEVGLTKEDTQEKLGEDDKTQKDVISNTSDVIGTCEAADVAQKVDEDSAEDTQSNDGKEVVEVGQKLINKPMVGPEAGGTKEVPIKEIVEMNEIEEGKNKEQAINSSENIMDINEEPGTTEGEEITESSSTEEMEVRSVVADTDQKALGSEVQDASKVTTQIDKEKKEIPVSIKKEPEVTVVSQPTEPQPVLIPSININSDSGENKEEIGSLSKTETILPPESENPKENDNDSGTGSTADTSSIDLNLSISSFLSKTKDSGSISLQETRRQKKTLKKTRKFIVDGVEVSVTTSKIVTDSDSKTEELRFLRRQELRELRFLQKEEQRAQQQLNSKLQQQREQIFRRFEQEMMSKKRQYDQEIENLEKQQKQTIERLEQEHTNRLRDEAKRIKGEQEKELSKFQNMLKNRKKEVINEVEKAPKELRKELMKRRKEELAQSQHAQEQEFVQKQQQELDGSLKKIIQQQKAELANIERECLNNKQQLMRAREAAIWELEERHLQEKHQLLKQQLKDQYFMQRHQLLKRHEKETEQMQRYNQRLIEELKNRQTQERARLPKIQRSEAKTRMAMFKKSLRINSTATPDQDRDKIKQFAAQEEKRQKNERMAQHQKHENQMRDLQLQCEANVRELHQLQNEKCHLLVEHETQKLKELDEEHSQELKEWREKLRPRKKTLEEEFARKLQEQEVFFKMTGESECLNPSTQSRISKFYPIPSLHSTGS
Serine/threonine-protein kinase PAK 4 (Homo sapiens), sequence (O96013 whole entry, looked up): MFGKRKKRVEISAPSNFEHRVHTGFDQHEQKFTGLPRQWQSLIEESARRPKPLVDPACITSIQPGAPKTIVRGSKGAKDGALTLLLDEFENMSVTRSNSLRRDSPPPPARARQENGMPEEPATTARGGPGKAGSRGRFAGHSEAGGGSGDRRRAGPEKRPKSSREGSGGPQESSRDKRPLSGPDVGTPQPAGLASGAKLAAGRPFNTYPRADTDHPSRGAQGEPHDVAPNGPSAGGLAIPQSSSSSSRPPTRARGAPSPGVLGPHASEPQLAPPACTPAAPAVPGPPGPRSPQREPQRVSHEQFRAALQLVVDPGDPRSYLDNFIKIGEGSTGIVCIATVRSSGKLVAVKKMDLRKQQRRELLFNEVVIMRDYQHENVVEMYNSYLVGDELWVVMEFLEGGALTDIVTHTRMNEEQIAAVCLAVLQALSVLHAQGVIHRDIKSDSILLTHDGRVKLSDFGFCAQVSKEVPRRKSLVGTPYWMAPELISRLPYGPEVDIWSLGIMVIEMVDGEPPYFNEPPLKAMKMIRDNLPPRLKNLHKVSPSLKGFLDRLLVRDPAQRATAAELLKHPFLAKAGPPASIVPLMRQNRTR
Tyrosine-protein kinase JAK1 (Homo sapiens), sequence (P23458 whole entry): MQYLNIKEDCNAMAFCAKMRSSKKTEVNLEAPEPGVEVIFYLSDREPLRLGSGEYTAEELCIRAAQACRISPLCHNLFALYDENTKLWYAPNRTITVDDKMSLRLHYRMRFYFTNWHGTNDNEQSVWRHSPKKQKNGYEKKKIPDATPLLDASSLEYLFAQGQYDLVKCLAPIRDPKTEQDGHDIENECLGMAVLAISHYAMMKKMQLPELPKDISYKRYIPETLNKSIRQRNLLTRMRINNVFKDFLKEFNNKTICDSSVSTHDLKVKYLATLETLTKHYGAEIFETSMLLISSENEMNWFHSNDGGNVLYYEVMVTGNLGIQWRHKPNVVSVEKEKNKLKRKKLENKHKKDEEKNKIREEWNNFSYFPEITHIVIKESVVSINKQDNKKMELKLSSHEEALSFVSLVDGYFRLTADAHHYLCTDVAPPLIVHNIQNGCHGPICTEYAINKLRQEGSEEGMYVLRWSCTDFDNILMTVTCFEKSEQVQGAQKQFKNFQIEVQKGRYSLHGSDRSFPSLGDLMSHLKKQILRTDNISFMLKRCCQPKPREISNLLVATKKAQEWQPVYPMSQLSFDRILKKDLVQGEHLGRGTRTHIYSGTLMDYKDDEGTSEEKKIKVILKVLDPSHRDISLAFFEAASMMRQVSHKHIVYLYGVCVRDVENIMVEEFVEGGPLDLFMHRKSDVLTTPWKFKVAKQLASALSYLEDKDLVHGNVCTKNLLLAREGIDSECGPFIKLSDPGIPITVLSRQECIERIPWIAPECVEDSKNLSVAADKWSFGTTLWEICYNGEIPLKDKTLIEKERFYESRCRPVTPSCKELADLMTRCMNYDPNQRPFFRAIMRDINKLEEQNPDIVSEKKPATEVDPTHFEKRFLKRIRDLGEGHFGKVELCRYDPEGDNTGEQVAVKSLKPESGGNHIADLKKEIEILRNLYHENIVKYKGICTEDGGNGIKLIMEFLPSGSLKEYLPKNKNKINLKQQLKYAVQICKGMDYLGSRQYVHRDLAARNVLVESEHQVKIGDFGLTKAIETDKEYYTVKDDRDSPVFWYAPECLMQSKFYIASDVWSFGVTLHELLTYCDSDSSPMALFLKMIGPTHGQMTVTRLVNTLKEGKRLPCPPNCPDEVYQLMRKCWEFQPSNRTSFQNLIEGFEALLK
Mitogen-activated protein kinase 11, sequence (Q15759 whole entry): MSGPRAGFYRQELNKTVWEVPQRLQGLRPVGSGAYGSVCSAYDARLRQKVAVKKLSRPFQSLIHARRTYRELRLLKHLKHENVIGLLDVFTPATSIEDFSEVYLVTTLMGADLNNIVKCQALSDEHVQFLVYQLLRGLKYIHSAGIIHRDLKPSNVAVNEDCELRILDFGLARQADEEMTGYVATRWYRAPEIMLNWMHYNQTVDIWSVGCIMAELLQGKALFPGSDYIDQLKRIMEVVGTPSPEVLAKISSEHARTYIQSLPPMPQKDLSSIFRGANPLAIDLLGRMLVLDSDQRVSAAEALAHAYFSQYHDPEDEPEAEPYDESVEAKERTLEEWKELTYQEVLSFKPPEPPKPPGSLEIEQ

As to `CC[C@H](CO)Nc1nc(NCc2ccccc2)c2ncn(C(C)C)c2n1` [SELICICLIB], the ΔTm was 0 °C in [1]; 0.5 °C in assay [2]; 1 °C in assay [3]; 0.3 °C in [4]; 0.2 °C in [5]; 0 °C in assay [6]. For the same molecule, the ΔTm amounted to 0.1 °C in [7]; 0.2 °C in assay [8]; 0.6 °C in assay [9]; 1.7 °C in assay [10]; 0.2 °C in [11]; 0.7 °C in [12].
Take `CN(C)S(=O)(=O)c1ccc2c(c1)/C(=C/c1cc3c([nH]1)CCCC3)C(=O)N2`: the ΔTm in assay [1] was 4.7 °C; in assay [2], 1.7 °C; in assay [3], 1.1 °C; in assay [4] it was 12.8 °C; in assay [5] it was 2.5 °C; in [6], 0.3 °C. The thermal shift (ΔTm) in assay [7] stood at 3.6 °C; in assay [8] it was 0.4 °C; in [9], 0.4 °C; in [10] it was 1.3 °C; in assay [11], 6.2 °C; in assay [12], 2.8 °C.
For `O=C1Nc2ccccc2/C1=C\c1ccc[nH]1`, the ΔTm in assay [1] was 4.1 °C; in assay [2], 2.1 °C; in assay [3], 0.3 °C; in assay [4] it was 6 °C; in assay [5], 1.7 °C; in assay [6] it was 0.3 °C. Also, the thermal shift (ΔTm) in [7] was found to be 8.5 °C; in assay [8], 0.9 °C; in assay [9], 0.7 °C; in assay [10], 1.2 °C; in assay [11], 3.1 °C; in assay [12] it was 1.7 °C.
With `N=C(N)NCCNS(=O)(=O)c1cccc2cnccc12`, the ΔTm is 0.2 °C in [1]; 0.8 °C in assay [2]; -0.3 °C in assay [3]; 0.1 °C in assay [4]; 1.7 °C in [5]; 0.3 °C in assay [6]. For the same molecule, the shift in melting temperature (ΔTm) is -0.3 °C in assay [7]; -0.3 °C in assay [8]; 0.4 °C in assay [9]; -0.1 °C in assay [10]; 0.3 °C in assay [11]; 0.5 °C in assay [12].
Turning to `COc1nccc(-c2c(-c3ccc(F)cc3)ncn2[C@H]2CC[C@H](O)CC2)n1`, the ΔTm in assay [1] is 1.2 °C; in assay [2], -0.2 °C; in assay [3], 6.6 °C; in [4] it was 0.1 °C; in assay [5], -0.8 °C; in assay [6], 1.2 °C. In addition, the ΔTm in assay [7] was found to be 0.8 °C; in assay [8], 0 °C; in assay [9], 0.1 °C; in assay [10], 0.7 °C; in [11], 1.9 °C; in [12] it was 1 °C.
`O=C(O)c1cc(N(Cc2ccccc2O)Cc2cc(O)ccc2O)ccc1O` [LAVENDUSTIN A]: the ΔTm in assay [1] stood at 0.8 °C; in assay [2] it was 0.4 °C; in assay [3] it was 0.3 °C; in [4] it was 1.1 °C; in assay [5] it was 1.2 °C; in assay [6], 0.3 °C. Besides, the ΔTm in assay [7] was 0.4 °C; in [8], 0.6 °C; in [9], -0.5 °C; in [10], 0.1 °C; in assay [11] it was -0.7 °C; in assay [12], 1.3 °C.
Consider `COc1cc2ncnc(Nc3ccc(NC(=O)c4ccccc4)cc3)c2cc1OC` [ANILINOQUINAZOLINE1], for which the ΔTm was found to be 7.3 °C in assay [1]; 6.2 °C in [2]; 0.3 °C in assay [3]; 0.5 °C in assay [4]; 1 °C in assay [5]; 0.5 °C in assay [6]. Besides, the thermal shift (ΔTm) in assay [7] is 1.9 °C; in assay [8], 1.1 °C; in assay [9] it was -0.2 °C; in assay [10] it was 0 °C; in [11] it was 0.1 °C; in assay [12] it was 0.3 °C.
